Earlier results in patent publication US20210316003A1 (Immunomedics, Inc., priority 2020, published 2021).
Read-outs that look alike come from different tables or passages of the source.

Legend:
[1] = test system: patients with advanced colorectal cancer; details: cited from earlier work
patients = details: single-agent therapy; cited from earlier work
[2] = test system: patients with relapsed SCLC; details: cited from earlier work
SCLC patients = details: 28 SCLC patients; cited from earlier work
[3] = test system: patients with recurrent SCLC; details: nivolumab alone; cited from earlier work

CCc1c2c(nc3ccc(OC(=O)N4CCC(N5CCCCC5)CC4)cc13)-c1cc3c(c(=O)n1C2)COC(=O)[C@]3(O)CC [irinotecan]
Response ([1]; TDP1 IVS12+79 G/G genotype): 64% | Response ([1]; TDP1 IVS12+79 T/T genotype): 25% | Incidence of grade 3/4 neutropenia ([1]; TOP1 IVS4+61 A/A genotype (small sample size)): 50% | Incidence of grade 3/4 neutropenia ([1]; TOP1 IVS4+61 G/G genotype): 8% | Grade ≥3 events of early diarrhea (patients): 8% | Grade ≥3 events of late diarrhea (patients): 31%

CC[C@@]1(O)C(=O)OCc2c1cc1n(c2=O)Cc2cc3c(CN(C)C)c(O)ccc3nc2-1 [topotecan]
Grade ≥3 anemia ([2]; SCLC, meta-analysis): 24% | Grade ≥3 neutropenia ([2]; SCLC, meta-analysis): 69% | Grade ≥3 thrombocytopenia ([2]; SCLC, meta-analysis): 1% | Patients who died from this chemotherapy ([2]; SCLC, meta-analysis): approximately 2% | Objective response rate ([2]; chemoresistant frontline SCLC patients): 5% | Objective response rate ([2]; chemosensitive SCLC patients): 17% | Median survival (SCLC patients): 5 months | One-year survival (SCLC patients): 3.5% | PR (SCLC patients): 11%

Nivolumab: inhibitor of the T-cell checkpoint receptor PD-1
Response rate [3]: 10%
